Measured values from ChEMBL document CHEMBL3046352, “Synthesis, anti-HSV-1, and cytotoxic activities of some new pyrazole- and isoxazole-based heterocycles” (Med Chem Res, 2011).
≈ marks a conversion by molar mass, not a printed value. Calls of active or inactive are those of the source. The calls are words filed in the database; no cut-off is given here.

Columns and labels:
Human alphaherpesvirus 1 [1] = test: Antiviral activity against Human herpesvirus 1 infected Vero cells assessed as reduction in viral plaque after 66 hr relative to control; assay type: functional; design: concentration or dose not given beside the values
[2] = Cytotoxicity against Chlorocebus aethiops (African green monkey) Vero cells assessed as concentration required for 50% loss of monolayer around viral plaque after 66 hr; assay type: cell-based; conditions: chlorocebus sabaeus, read-out: Activity
Human alphaherpesvirus 1 [3] = test: Antiviral activity against Human herpesvirus 1 infected Vero cells after 66 hr; assay type: functional

| SMILES | Activity (Human alphaherpesvirus 1 [1]) | CC50 at 66 h [2] | MAC (Human alphaherpesvirus 1 [3]) |
| --- | --- | --- | --- |
| CC(=N/NC(=O)c1cc(-c2ccc(Cl)cc2)on1)/C(Cl)=N\Nc1ccc(F)cc1 | 51% | 20 µg/mL (≈ 46.1 µM) | 0.1 mg/mL |
| CC(=N/NC(=O)c1cc(-c2ccc(Cl)cc2)n(-c2ccccc2)n1)/C(Cl)=N\Nc1ccc(F)cc1 | 69% | 20 µg/mL (≈ 39.3 µM) | 0.1 mg/mL |
| NNC(=O)c1cc(-c2ccc(Cl)cc2)on1 | 43% | 10 µg/mL (≈ 42.1 µM) | 0.1 mg/mL |
| O=C(N/N=c1\scc(-c2ccc(Cl)cc2)n1-c1ccccc1)c1cc(-c2ccc(Cl)cc2)on1 | inactive | 20 µg/mL (≈ 39.4 µM) | – |
| Clc1ccc(-c2cc(-c3nnc(Nc4ccccc4)s3)nn2-c2ccccc2)cc1 | inactive | 30 µg/mL (≈ 69.8 µM) | – |
| O=C(N/N=C/c1ccc(F)cc1)c1cc(-c2ccc(Cl)cc2)n(-c2ccccc2)n1 | 67% | 20 µg/mL (≈ 47.7 µM) | 0.1 mg/mL |
| O=C(N/N=c1\scc(-c2ccc(Cl)cc2)n1-c1ccccc1)c1cc(-c2ccc(Cl)cc2)n(-c2ccccc2)n1 | inactive | 20 µg/mL (≈ 34.3 µM) | – |
| C[C@@]1(CO)[C@H](O)CC[C@@]2(C)[C@H]1CC[C@H]1C[C@@H]3C[C@@]12CC[C@]3(O)CO [APHIDICOLIN] | 100% | 10 µg/mL (≈ 29.5 µM) | 0.005 mg/mL |
| O=C(N/N=C1/S/C(=C\c2ccc(F)cc2)C(=O)N1c1ccccc1)c1cc(-c2ccc(Cl)cc2)on1 | inactive | 20 µg/mL (≈ 38.5 µM) | – |
| CC1=NN(C(=O)c2cc(-c3ccc(Cl)cc3)n(-c3ccccc3)n2)C(=O)/C1=N/Nc1ccc(F)cc1 | inactive | 20 µg/mL (≈ 39.9 µM) | – |
| CC1=NN(C(=O)c2cc(-c3ccc(Cl)cc3)on2)C(=O)/C1=N/Nc1ccc(F)cc1 | inactive | 20 µg/mL (≈ 47 µM) | – |
| O=C(N/N=C/c1ccc(F)cc1)c1cc(-c2ccc(Cl)cc2)on1 | 56% | 10 µg/mL (≈ 29.1 µM) | – |
| Clc1ccc(-c2cc(-c3nnc(Nc4ccccc4)s3)no2)cc1 | inactive | 20 µg/mL (≈ 56.4 µM) | – |
| O=C(N/N=C1/S/C(=C\c2ccc(F)cc2)C(=O)N1c1ccccc1)c1cc(-c2ccc(Cl)cc2)n(-c2ccccc2)n1 | inactive | 30 µg/mL (≈ 50.5 µM) | – |
| O=C(NNC(=S)Nc1ccccc1)c1cc(-c2ccc(Cl)cc2)n(-c2ccccc2)n1 | inactive | 20 µg/mL (≈ 44.6 µM) | – |
| NNC(=O)c1cc(-c2ccc(Cl)cc2)n(-c2ccccc2)n1 | 65% | 20 µg/mL (≈ 63.9 µM) | 0.1 mg/mL |
| O=C(NN1C(=O)c2ccccc2C1=O)c1cc(-c2ccc(Cl)cc2)on1 | inactive | 10 µg/mL (≈ 27.2 µM) | 0.1 mg/mL |
| O=C(NNC(=S)Nc1ccccc1)c1cc(-c2ccc(Cl)cc2)on1 | 19% | 20 µg/mL (≈ 53.6 µM) | 0.1 mg/mL |
